Experimental data reported in patent US9469854B2, “Pharmaceutical composition for treating liver diseases” (Academia Sinica, priority 2014, dated 2016).

Key:
SPEBF2 = test: qRT-PCR mRNA expression in primary human hepatocytes; assay type: cell-based; conditions: PHH, 40 μM berberine, 4-8 h
Procedure: The primary human hepatocytes from Caucasian donors were purchased from Invitrogen and cultured following the manufacturer's instructions. The hepatocytes were thawed and transferred into cryopreserved hepatocytes recovery medium (CM7000, Invitrogen), centrifuging at room temperature, 100×g for 10 min. Then, the hepatocytes were diluted to seeding density with plating medium (CM3000, Invitrogen) and added into collagen I-coated plates (Invitrogen). These plates were incubated at 37° C. for 4-6 hours under 5% CO2 for forming a monolayer. Then, plating medium was replaced by overlay incubation medium (CM4000 and 0.35 mg/mL Geltrex™ Matrix, Invitrogen), and the incubation medium was replaced daily. In the following examples, hepatocytes form 3 to 4 donors were used for experiments.
A 50 mM stock solution of berberine chloride (Sigma-Aldrich) was prepared in dimethyl sulfoxide (DMSO). Cells were treated with 40 μM of berberine chloride or 0.08% DMSO as the control. For induction of lipid droplets formation in cultured cells, 200 μM of oleic acid (Sigma-Aldrich) was added into the culture medium for 24 h.
Total RNA was extracted using a TRIZOL reagent (Invitrogen) according to the manufacturer's protocol. The total RNA quantity was measured using a NanoDrop ND-1000 spectrophotometer (Nanodrop Technologies). […]

ACACA = test: Western blot protein expression in HepG2 cells; assay type: cell-based, human; conditions: HepG2, mimic transfection, 72 h
Procedure: (§1) The human HepG2 cells and HEK 293T cells used in the following examples were originally obtained from the American Tissue Culture Collection (ATCC, USA). The human HCC HepG2 cell line was cultured in Minimum Essential Medium Eagle (Sigma) supplemented with 10% fetal bovine serum (FBS) (Invitrogen), 2.2 g/L of sodium bicarbonate (Sigma), 0.1 mM of non-essential amino acids (Caisson), 1 mM of sodium pyruvate (Invitrogen), and 10 of ml/L penicillin-streptomycin-amphotericin solution (Biological Industries). Human HEK-293T cells were maintained in high-glucose Dulbecco's modified eagle medium (Invitrogen) supplemented with 10% FBS and 3.7 g/L of sodium bicarbonate (Sigma). Both cell lines were cultured at 37° C. and 5% CO2.
(§2) The HepG2 cells were transfected at a density of 5×10^4 cells per well in a 24-well culture plates with either 50 nM of hsa-miR-21-3p (miR-21-3p mimic) or negative-control mimic (NC mimic), or with either 100 nM of hsa-miR-21-3p inhibitor (miR-21-3p inhibitor) or negative-control inhibitor (NC inhibitor) by using the DharmaFECT 4 transfection reagent (Thermo Scientific Dharmacon) according to the manufacturer's instructions. Cells were incubated for 24 h or 48 h with a microRNA mimic or inhibitor prior to RNA purification for gene expression analysis, and were incubated for 72 h for protein expression analysis.
(§3) Total cell lysates were prepared using a lysis buffer (7 M of urea, 4% CHAPS, 2 M of thiourea, 40 mM of Tris, 65 mM of dithioerythritol). Protein samples were separated using 12.5% SDS-PAGE and then transferred to PVDF membranes. The following primary antibodies were used: rabbit polyclone anti-MAT1A (1:800, GeneTex), anti-MAT2A (1:1000, GeneTex), anti-MAT2B (1:1000, GeneTex), anti-ACACB (1:1000, Sigma), anti-DGAT2 (1:1000, GeneTex) and anti-GAPDH (1:3000, GeneTex) and mouse monoclone anti-ACACA (1:1000, Millipore). The goat polyclonal anti-rabbit or anti-mouse IgG antibody conjugated with HRP (1:5000, abcam) was used as the secondary antibody. The bands were imaged using the LAS-4000 mini luminescent image analyzer (Fujifilm). The quantification of western blot analysis was achieved by using Image J software. The protein expression levels were normalized to the GAPDH levels.

ACACB = test: Western blot protein expression in HepG2 cells; assay type: cell-based, human; conditions: HepG2, mimic transfection, 72 h
Procedure: as §1, §2, §3

DGAT2 = test: Western blot protein expression in HepG2 cells; assay type: cell-based, human; conditions: HepG2, miR-21-3p over-expressed, 72 h
Procedure: as §1, §2, §3

MAT1A = test: Western blot protein expression in HepG2 cells; assay type: cell-based, human; conditions: HepG2, mimic transfection 72 h
Procedure: as §1, §2, §3

MAT2A = test: Western blot protein expression in HepG2 cells; assay type: cell-based, human; conditions: HepG2, mimic transfection 72 h
Procedure: as §1, §2, §3

MAT2B = test: Western blot protein expression in HepG2 cells; assay type: cell-based, human; conditions: HepG2, mimic transfection 72 h
Procedure: as §1, §2, §3

intracellular SAM = test: Measurement of intracellular SAM concentration in HepG2 cells; assay type: cell-based, human
Procedure: […] The intracellular SAM of 5×10^4 HepG2 cells pellet was resuspended in […] of an extraction solution (0.2% perchloric acid plus 0.08% (v/v) 2-mercaptoethanol in ddH2O). Cells were incubated at room temperature for 1 h and vortexed every 5 min. The suspension was centrifuged at 4° C. at 10000×g for 5 min, and then the supernatant was collected. SAM levels in the supernatants were quantified using the Bridge-It SAM fluorescence assay kit (Mediomics) and detected using SpectraMax plate reader (Molecular Devices) according to the manufacturer's instructions.

[1] = system: intracellular malonyl-CoA; test: Measurement of intracellular malonyl-CoA concentration in PHH cells; assay type: cell-based, human; conditions: 72-h mimic transfection
Procedure: After transfection with 50 nM of miR-21-3p mimic or the negative-control mimic for 72 h, the PHH cells and HepG2 cells were trypsinized. The intracellular malonyl-CoA concentration was measured using the malonyl-CoA ELISA Kit (MyBioSource) according to the manufacturer's instructions.

exon 23 of ACACB = test: Reporter examination of miR-21-3p and ACACB (technology similar to Example 6); assay type: cell-based, human
Procedure: The HEK-293T and HepG2 cells were seeded at a density of 5×10^4 cells per well in a 24-well culture plate the day before transfection. The HEK-293T and HepG2 cells were tri-transfected with (1) any one of the above-mentioned pMIR-REPORT-3′ UTR construction (300 ng), (2) the control Renilla luciferase reporter plasmid pRL-TK from Promega (10 ng), and (3) 50 nM of hsa-miR-21-3p mimic or negative-control mimic by using the Lipofectamine 2000 transfection reagent (Invitrogen) according to the manufacturer's instructions. Luciferase assays were performed after transfection for 48 h by using the Dual Luciferase reporter assay kit (Promega) and the Paradigm detection platform (Beckman) according to the manufacturer's protocol. The firefly luciferase activity was normalized relative to the Renilla luciferase activity.

| Compound | mRNA expression of SPEBF2 (SPEBF2) | decrease in protein expression of ACACA (ACACA) | decrease in protein expression of ACACB (ACACB) | decrease in protein level of DGAT2 (DGAT2) | MAT1A protein expression increase (MAT1A) | MAT2A protein expression decrease (MAT2A) | MAT2B protein expression decrease (MAT2B) | intracellular SAM contents increase (intracellular SAM; HepG2, mimic transfection 48 h vs NC mimic) | intracellular SAM contents increase (intracellular SAM; HepG2, mimic transfection 72 h vs NC mimic) | intracellular malonyl-CoA concentration decrease [1] | suppression of ACACB expression by binding exon 23 (exon 23 of ACACB) |
| --- | --- | --- | --- | --- | --- | --- | --- | --- | --- | --- | --- |
| COc1ccc2cc3[n+](cc2c1OC)CCc1cc2c(cc1-3)OCO2 [berberine] | decreases |  |  |  |  |  |  |  |  |  |  |
| hsa-miR-21-3p (CAACACCAGUCGAUGGGCUGU; listed as RNA, chemistry not given here) [miR-21-3p mimic] |  | 2.3 fold | 1.6 fold | 3.3 fold | 1.7 fold | 2.6 fold | 3.4 fold | 1.6 fold | 3.0 fold | 2.2 fold | 1.4 fold |
